Data taken from the NIST ThermoML archive (doi:10.1016/j.fluid.2004.07.015).

Conditions: 101.33 kPa, Liquid

CCCCn1cc[n+](C)c1.F[P-](F)(F)(F)(F)F [1-butyl-3-methylimidazolium hexafluorophosphate]
Conditions | mass density [kg/m3]
289.1 K | 1372.6
291.1 K | 1370.8
293.1 K | 1369.1
295.1 K | 1367.4
297.05 K | 1365.8
299.1 K | 1364.1
301.05 K | 1362.4
303.15 K | 1360.6
305.1 K | 1359
307.15 K | 1357.3
309.15 K | 1355.6
